Data reported in US4540689A, “Penicillin derivative” (Kureha Kagaku Kogyo Kabushiki Kaisha, priority 1981, dated 1985).

Columns and labels:
[1] = test system: Pseudomonas aeruginosa; assay: Effect on intestinal bacterial colonies, Ps. aeruginosa count in feces; assay type: in vivo; conditions: female ICR mice, oral 500 mg/kg/day for two days, first day after administration; before administration <3.0
Procedure: (§1) Effect of the present compounds on the intestinal bacterial colonies was examined.
(§2) Each of the present compounds was orally administered to mice (one group consisting of five female ICR mice of 6-week-old) for two consecutive days at a dose of 500 mg/kg/day.
(§3) Before and on the first day after the administration, feces of each mouse was collected and diluted with an anerobic diluent (phosphoric buffer solution) of 100 times volume and ground. 0.1 ml of the diluted and ground feces was smeared on each culture medium shown in Table 1 and cultured aerobically or anaerobically (according to the anaerobic glove box method) under each condition shown in Table 1.
NAC agar aerobic, 37° C., one day

[2] = test system: Lactobacillus bifidus; assay: Effect on intestinal bacterial colonies, L. bifidus count in feces; assay type: in vivo; conditions: female ICR mice, oral 500 mg/kg/day for two days, first day after administration; before administration 8.4
Procedure: as §1, §2, §3
BS agar anaerobic, 37° C., five

[3] = test system: Staphylococcus aureus IAM 1011; assay: Activation by rat liver homogenate (S-9 mix), penicillin cup proliferation-inhibiting circle; assay type: cell-based; conditions: compound solution 100 μg/ml, ratio of circle diameter to conventional penicillin antibiotic
Procedure: As an enzyme for activating metabolism, a rat liver homogenate (S-9, manufactured by Oriental Yeast Company, Japan) was used in the following composition per one ml (hereinafter referred to as S-9 mix).
0.1 ml of each solution of the present compounds at a concentration of 100 μg/ml was mixed with 0.9 ml of S-9 mix or 0.9 ml of 0.1M phosphoric buffer solution (as a control) and the obtained mixture was incubated at 37° C. for 20 min with shaking.
Staphylococcus aureus IAM 1011 was inoculated into a Mueller-Hinton's culture medium and cultured at 37° C. for 18 hours. The culture medium was adjusted to a cell concentration of 1×10^8 per one ml and mixed with 50 times by volume of Mueller-Hinton's agar culture medium to obtain an agar plate.
A penicillin cup of 8 mm in diameter was placed on the agar plate prepared above, and into the cup 0.1 ml of the mixture was introduced and allowed to stand at 4° C. for 2 hours and then cultured at 37° C. for 18 hours to measure the diameter of a circle in which the proliferation of bacteria was inhibited (proliferation-inhibiting circle). In Table 4, the proliferation-inhibitingindex is shown with the ratio (%) of the diameter of the proliferation-inhibiting circle obtained by using each of the present compounds to that obtained by using the comparative compound (conventionalpenicillin antibiotic).

[4] = test system: Escherichia coli IFO 12734; assay: Antibacterial activity (MIC), agar plate, E. coli; assay type: cell-based; conditions: E. coli IFO 12734, Mueller-Hinton agar, 37° C., 18 to 24 hours; unit assumed
Procedure: (§4) Antibacterial activity of the present compounds was examined as follows.
(§5) Antibacterial activity of each of the present compounds was examined against the following two bacteria according to the standard method of Japan Society of Chemotherapy:
Escherichia coli IFO 12734 and
(§6) Each bacterial strain was inoculated into the Mueller-Hinton's culture medium and cultured at 37° C. for 18 to 48 hours. The culture medium was diluted so as to contain 1×10^6 cells of the bacteria per one ml, and the obtained medium was used as the bacterial specimen.
(§7) Agar plates were prepared by adding one part by weight of each solution of the present compounds having a predetermined concentration to nine parts by weight of Mueller-Hinton's culture medium.
(§8) A loopful amount of the bacterial specimen prepared above was smeared to make a streak of about 2 cm on each agar plate and cultured at 37° C. for 18 to 24 hours. The minimum concentration for completely inhibiting proliferation of the bacteria (referred as MIC) was determined.

[5] = test system: Streptococcus spp.; assay: Effect on intestinal bacterial colonies, Streptococcus count in feces; assay type: in vivo; conditions: female ICR mice, oral 500 mg/kg/day for two days, first day after administration; before administration 6.8
Procedure: as §1, §2, §3
TATAC agar aerobic, 37° C., one day

[6] = test system: Bacteroides; assay: Effect on intestinal bacterial colonies, Bacteroides count in feces; assay type: in vivo; conditions: female ICR mice, oral 500 mg/kg/day for two days, first day after administration; before administration 8.3
Procedure: as §1, §2, §3
Bacteroides NBGT agar anaerobic, 37° C., five

[7] = test system: Lactobacillus acidophilus; assay: Effect on intestinal bacterial colonies, L. acidophilus count in feces; assay type: in vivo; conditions: female ICR mice, oral 500 mg/kg/day for two days, first day after administration; before administration 9.0
Procedure: as §1, §2, §3
Lactobacillus acidophilus
LBS agar anaerobic, 37° C., five

[8] = test system: Escherichia coli; assay: Effect on intestinal bacterial colonies, E. coli count in feces; assay type: in vivo; conditions: female ICR mice, oral 500 mg/kg/day for two days, first day after administration; before administration 6.4
Procedure: as §1, §2, §3
DHL agar aerobic, 37° C., one day

[9] = test system: Staphylococcus aureus IAM 1011; assay: Antibacterial activity (MIC), agar plate, Staph. aureus; assay type: cell-based; conditions: Staph. aureus IAM 1011, Mueller-Hinton agar, 37° C., 18 to 24 hours; unit assumed
Procedure: as §4, §5
Staphylococcus aureus IAM 1011
as §6, §7, §8

Compound: COc1cccc(C=NC(C(=O)N[C@@H]2C(=O)N3[C@@H]2SC(C)(C)[C@@H]3C(=O)O)c2ccccc2)c1O (stereo partly shown) [Example 2, sodium 6-(3-methoxysalicylaldehydeiminophenyl-glycino)penicillanate]
- Logarithmic value of the number of bacterial cells per one gram of feces, Ps. aeruginosa [1]: < 3.0 logarithmic value; cells per o
- Logarithmic value of the number of bacterial cells per one gram of feces, L. bifidus [2]: 8.3 logarithmic value; cells per o
- Proliferation-inhibiting index (%), after adding S-9 mix ([3]; incubated with S-9 mix 37° C., 20 min): +++ (66-100)
- Proliferation-inhibiting index (%), before adding S-9 mix ([3]; phosphoric buffer control without S-9): ++ (33-66)
- MIC, E. coli [4]: 6.25 µg/mL
- Logarithmic value of the number of bacterial cells per one gram of feces, Strept. spp. [5]: 6.5 logarithmic value; cells per o
- Logarithmic value of the number of bacterial cells per one gram of feces, Bacteroides [6]: 8.3 logarithmic value; cells per o
- Logarithmic value of the number of bacterial cells per one gram of feces, L. acidophilus [7]: 8.8 logarithmic value; cells per o
- Logarithmic value of the number of bacterial cells per one gram of feces, E. coli [8]: 6.4 logarithmic value; cells per o
- MIC, Staph. aureus [9]: 0.1 µg/mL
